Results on two compounds are retold here after patent US20180169095A1, “THE USE OF SGC STIMULATORS, SGC ACTIVATORS, ALONE AND COMBINATIONS WITH PDE5 INHIBITORS FOR THE TREATMENT OF DIGITAL ULCERS (DU) CONCOMITANT TO SYSTEMIC SCLEROSIS (SSC)” (Bayer Pharma Aktiengesellschaft, priority 2015, published 2018).

Structures are written as SMILES. Entries after “also recorded” stand apart in the source; their conditions may differ.

For the experiment, the system named is Tsk-1 mice. The experiment can be described thus: Wound healing in Tsk-1 mice (tight-skin mouse model of SSc), 4 mm punch wounds. The note with it: for Healing time relative to healthy WT control mice (in words): TSK mice, no dose given; for Healing time relative to healthy WT control mice (in words) / Wound healing in tsk-1 mice versus placebo (in words): summary statement; for Reduction of wound size / Normalization of wound healing versus placebo-treated WT mice (68%±2%) / Wound healing in tsk-1 mice versus placebo (in words): tsk-1 mice; for Reduction of wound size / Normalization of wound healing versus placebo-treated WT mice (68%±2%): 3 days after punching; for Reduction of wound size: mean±SEM; for Normalization of wound healing versus placebo-treated WT mice (68%±2%): 45 ppm in mice chow; for Wound healing in tsk-1 mice versus placebo (in words): drug in food. The experiment is classed as in vivo. How it is done: The tight-skin (Tsk-1) mouse model of SSc was used to evaluate the effects of compound according to formula (27) and (3) (BAY 41-2272 and BAY 63-2521) on wound healing in mice with substantial skin fibrosis. Due to an autosomal dominant mutation namely a tandem duplication of the fibrillin-1 gene, the phenotype of tsk-1 mice is characterized by an increased hypodermal thickness (Beyer et al. 2010). Genotyping of Tsk-1 mice was performed by PCR with the following primers: mutated fibrillin-1/tsk-1 forward primer: 5′-[…]-3′, reverse primer: 5′-[…]-3′.
The effects of either placebo (=vehicle for the compounds=0.5% tylose solution), or the compound according to formula (27) or (3), (BAY 41-2272 or BAY 63-2521) were studied in Tsk-1 mice. Tsk-1 mice were anaesthetized and carefully shaved 3 days before setting the wounds for exact quantification of the wound size. In order to avoid influences on wound healing by daily handling of the animals, the bi-daily gavage treatment was replaced by drug administration in the food. Mice received either normal mice chow (placebo) or mice chow, containing 15 and 45 ppm of compound according to formula (27), (BAY 41-2272) or containing 5 ppm, 15 ppm and 45 ppm of compound according to formula (3), (BAY 63-2521), respectively. […] Treatment groups consist of at least 8 tsk-1 mice per group. Treatment started on the day of shaving to achieve steady state exposure. Three days after shaving, mice were carefully anesthetized and round wounds were punched with 4 mm in diameter. 3 days after punching, mice were euthanized and the wound size was assessed. Statistical analysis of data was done by one-way ANOVA followed by Tuckey's multiple comparison post-hoc analysis

The mark [1] stands for this setting: 15 ppm in mice chow (exposure similar to 1 mg/kg BID).
Setting [2] is: 45 ppm in mice chow (exposure similar to 3 mg/kg BID).

In the case of `COC(=O)N(C)c1c(N)nc(-c2nn(Cc3ccccc3F)c3ncccc23)nc1N` [(3)], the “Healing time relative to healthy WT control mice (in words)” value is “normalized the healing time to healthy WT control mice”; the “Normalization of wound healing versus placebo-treated WT mice (68%±2%)” value is given as “normalized wound healing to a similar extent as observed in placebo-treated WT mice”; the “Wound healing in tsk-1 mice versus placebo (in words)” value was “significantly and dose-dependently accelerated wound healing; also recorded: dose-dependently and significantly accelerated wound healing; also recorded: significantly and dose-dependently improved”. In addition, the “Reduction of wound size” value (5 ppm in mice chow (exposure similar to 0.3 mg/kg BID)) is listed as 59%±4%. For the same compound, the “Reduction of wound size” value under setting [1] came to 65±3%. Besides, under setting [2], the “Reduction of wound size” value is given as 70%±2%.
Consider `Nc1nc(-c2nn(Cc3ccccc3F)c3ncccc23)ncc1C1CC1` [(27)], for which the “Healing time relative to healthy WT control mice (in words)” value is “normalized the healing time to healthy WT control mice”; the “Normalization of wound healing versus placebo-treated WT mice (68%±2%)” value is on record as “normalized wound healing to a similar extent as observed in placebo-treated WT mice”; the “Wound healing in tsk-1 mice versus placebo (in words)” value was “significantly and dose-dependently accelerated wound healing; also recorded: significantly and dose-dependently improved”. Under setting [1], the “Reduction of wound size” value was determined as 64±2%. Also, the “Reduction of wound size” value under setting [2] stood at 73±2%.
